Source: patent US12617779B2, “Self degradation-type CDK9 inhibitor prodrug and liposome encapsulating same” (Sumitomo Pharma Co., Ltd., priority 2021, dated 2026)

What was measured:
[1] = Evaluation of conversion rate to active form in BALB/c mouse plasma (Experimental Example 3); assay type: in vitro ADME; conditions: BALB/c, mouse, 0.2 μmol/L
Procedure: (§1) For Example 1, Example 2, Example 3, Example 4, Example 5, Example 6, Comparative Example 3, Comparative Example 4, Comparative Example 6, Comparative Example 7, Comparative Example 8, Comparative Example 9, Comparative Example 10 and Comparative Example 12, the attrition rate of the test compound and the conversion rate of the test compound to Alvocidib in human plasma and BALB/c mouse plasma were calculated by the following method.
(§2) The test compound was added to human plasma or BALB/c mouse plasma at a concentration of 0.2 μmol/L, and incubated at 37° C. The peak areas of the test compound and Alvocidib in the sample were determined by LC-MS/MS after 0, 30 and 60 minutes for Example 1, Example 2, Example 3, Example 4, Example 5 and Example 6, and after 0, 60 and 120 minutes for Comparative Example 3, Comparative Example 4, Comparative Example 6, Comparative Example 7, Comparative Example 8, Comparative Example 9, Comparative Example 10 and Comparative Example 12, and the attrition rate of the test compound and the conversion rate of the test compound to Alvocidib were calculated by the following formula. Attrition rate of test compound (%):(peak area of test compound in sample/peak area of test compound in sample after 0 minute)×100 Conversion rate to Alvocidib (%):(peak area of Alvocidib in sample/peak area of Alvocidib in reaction solution containing 0.2 μmol/L Alvocidib)×100
(§3) The measurement conditions for LC-MS/MS are as follows. • HPLC: Prominence system (Shimadzu Corporation) • MS/MS: • Example 1, Example 2, Example 3, Example 4, Example 5, Example 6, Comparative Example 8 (mouse), Comparative Example 10 (mouse) and Comparative Example 12 (mouse) • QTRAP5500 (SCIEX) • Comparative Example 6, Comparative Example 7, Comparative Example 8 (human), Comparative Example 9, Comparative Example 10 (human) and Comparative Example 12 (human) • 4000 QTRAP (SCIEX) • column: • other than Example 3 and Example 4 • Cadenza CD-C18, 3 μm, 50×2 mm (Imtakt Corporation) • Example 3 and Example 4 • Kinetex C8, 2.6 μm, 50×2.1 mm (Phenomenex) • column temperature: 40° C. • mobile phase: • A: water containing 0.1% formic acid • B: acetonitrile containing 0.1% formic acid • A/B (min): • Example 1, Example 2, Example 5, Example 6, Comparative Example 8 (mouse), Comparative Example 10 (mouse) and Comparative Example 12 (mouse) • 90/10(0)→40/60(5.0)→10/90(5.1)→10/90(6.5)→90/10(6.6)→90/10(8.0) • Example 3 and Example 4 • 86/14(0)→86/14(3.5)→10/90(5.5)→10/90(6.5)→86/14(6.6)→86/14(9.5) • Comparative Example 6, Comparative Example 7, Comparative Example 8 (human), Comparative Example 9, Comparative Example 10 (human) and Comparative Example 12 (human) • 90/10(0)→10/90(2.5)→10/90(3.5)→90/10(3.6)→90/10(5.0) • flow rate: 0.4 mL/min • detection: ESI (positive mode) • injection: 1 to 5 μL

[2] = Evaluation of conversion rate to active form in buffer solution (Experimental Example 1); assay type: physicochemical
Method in brief: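 Stability across pH: 25 umol/L, 37° C, 50 mM citrate/phosphate, pH 5.0–7.4. Sampling at 0, 0.5, 1, 2, 3 h; HPLC determined loss of compound and Alvocidib generated.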

[3] = Evaluation of conversion rate to active form in human plasma (Experimental Example 3); assay type: in vitro ADME; conditions: human, 0.2 μmol/L
Procedure: as §1, §2, §3

- Production rate (%) of Alvocidib ([1]; 0 min): 2%
- Residual rate (%) of test compound ([1]; 0 min): 100%
- Production rate (%) of Alvocidib ([1]; 60 min): 3%
- Residual rate (%) of test compound ([1]; 60 min): 94%
- Production rate (%) of Alvocidib ([1]; 120 min): 3%
- Residual rate (%) of test compound ([1]; 120 min): 92%
- Production rate of Alvocidib ([2]; pH5.0, 0 hr): 1.7%
- Residual rate ([2]; pH5.0, 0 hr): 97.7%
- Production rate of Alvocidib ([2]; pH5.0, 0.5 hr): 1.8%
- Residual rate ([2]; pH5.0, 0.5 hr): 97.8%
- Production rate of Alvocidib ([2]; pH5.0, 1 hr): 1.7%
- Residual rate ([2]; pH5.0, 1 hr): 97.8%
- Production rate of Alvocidib ([2]; pH5.0, 2 hr): 1.8%
- Residual rate ([2]; pH5.0, 2 hr): 97.7%
- Production rate of Alvocidib ([2]; pH5.0, 3 hr): 1.8%
- Residual rate ([2]; pH5.0, 3 hr): 97.7%
- Production rate of Alvocidib ([2]; pH5.5, 0 hr): 1.8%
- Residual rate ([2]; pH5.5, 0 hr): 97.8%
- Production rate of Alvocidib ([2]; pH5.5, 0.5 hr): 1.8%
- Residual rate ([2]; pH5.5, 0.5 hr): 97.6%
- Production rate of Alvocidib ([2]; pH5.5, 1 hr): 1.8%
- Residual rate ([2]; pH5.5, 1 hr): 97.7%
- Production rate of Alvocidib ([2]; pH5.5, 2 hr): 1.8%
- Residual rate ([2]; pH5.5, 2 hr): 97.8%
- Production rate of Alvocidib ([2]; pH5.5, 3 hr): 1.8%
- Residual rate ([2]; pH5.5, 3 hr): 97.6%
- Production rate of Alvocidib ([2]; pH6.0, 0 hr): 1.8%
- Residual rate ([2]; pH6.0, 0 hr): 97.8%
- Production rate of Alvocidib ([2]; pH6.0, 0.5 hr): 1.8%
- Residual rate ([2]; pH6.0, 0.5 hr): 97.7%
- Production rate of Alvocidib ([2]; pH6.0, 1 hr): 1.7%
- Residual rate ([2]; pH6.0, 1 hr): 97.7%
- Production rate of Alvocidib ([2]; pH6.0, 2 hr): 1.8%
- Residual rate ([2]; pH6.0, 2 hr): 97.7%
- Production rate of Alvocidib ([2]; pH6.0, 3 hr): 1.8%
- Residual rate ([2]; pH6.0, 3 hr): 97.7%
- Production rate of Alvocidib ([2]; pH6.5, 0 hr): 1.8%
- Residual rate ([2]; pH6.5, 0 hr): 97.7%
- Production rate of Alvocidib ([2]; pH6.5, 0.5 hr): 1.8%
- Residual rate ([2]; pH6.5, 0.5 hr): 97.6%
- Production rate of Alvocidib ([2]; pH6.5, 1 hr): 1.8%
- Residual rate ([2]; pH6.5, 1 hr): 97.7%
- Production rate of Alvocidib ([2]; pH6.5, 2 hr): 1.8%
- Residual rate ([2]; pH6.5, 2 hr): 97.8%
- Production rate of Alvocidib ([2]; pH6.5, 3 hr): 1.8%
- Residual rate ([2]; pH6.5, 3 hr): 97.7%
- Production rate of Alvocidib ([2]; pH7.0, 0 hr): 1.8%
- Residual rate ([2]; pH7.0, 0 hr): 97.7%
- Production rate of Alvocidib ([2]; pH7.0, 0.5 hr): 1.8%
- Residual rate ([2]; pH7.0, 0.5 hr): 97.7%
- Production rate of Alvocidib ([2]; pH7.0, 1 hr): 1.8%
- Residual rate ([2]; pH7.0, 1 hr): 97.6%
- Production rate of Alvocidib ([2]; pH7.0, 2 hr): 1.8%
- Residual rate ([2]; pH7.0, 2 hr): 97.6%
- Production rate of Alvocidib ([2]; pH7.0, 3 hr): 1.8%
- Residual rate ([2]; pH7.0, 3 hr): 97.7%
- Production rate of Alvocidib ([2]; pH7.4, 0 hr): 1.8%
- Residual rate ([2]; pH7.4, 0 hr): 97.7%
- Conversion to Alvocidib at pH 7.4 ([2]; pH 7.4, 37° C., up to 3 hours): slowly converted to Alvocidib
- Production rate of Alvocidib ([2]; pH7.4, 0.5 hr): 1.8%
- Residual rate ([2]; pH7.4, 0.5 hr): 97.6%
- Production rate of Alvocidib ([2]; pH7.4, 1 hr): 1.7%
- Residual rate ([2]; pH7.4, 1 hr): 97.7%
- Production rate of Alvocidib ([2]; pH7.4, 2 hr): 1.8%
- Residual rate ([2]; pH7.4, 2 hr): 97.7%
- Production rate of Alvocidib ([2]; pH7.4, 3 hr): 1.8%
- Residual rate ([2]; pH7.4, 3 hr): 97.8%
- Production rate (%) of Alvocidib ([3]; 0 min): 2%
- Residual rate (%) of test compound ([3]; 0 min): 100%
- Production rate (%) of Alvocidib ([3]; 60 min): 3%
- Residual rate (%) of test compound ([3]; 60 min): 101%
- Production rate (%) of Alvocidib ([3]; 120 min): 3%
- Residual rate (%) of test compound ([3]; 120 min): 134%
SMILES: CCNC(=O)O[C@@H]1CN(C)CC[C@@H]1c1c(O)cc(O)c2c(=O)cc(-c3ccccc3Cl)oc12 [Comparative Example 4, reference compound]
